Reference: publication PMC11509005, “Synthesis, Cytotoxicity, and Mechanistic Evaluation of Tetrahydrocurcumin-Amino Acid Conjugates as LAT1-Targeting Anticancer Agents in C6 Glioma Cells” (International Journal of Molecular Sciences, 2024)
Where two headings read alike, the source gives them in different places.

Columns and labels:
C6 glioma cells [1] = assay: MTT cell viability of BCH and of THC-di-Phe with or without LAT1 inhibitor BCH; type: cell-based; settings: 24 h
Method: To investigate the role of THC-conjugated amino acid conjugates on LAT1, THC-amino acid conjugates were co-incubated with an inhibitor of LAT1 (BCH). The cells were seeded overnight at 2 × 10^4 cells/well in 96-well plates. Initially, the cells were treated with different concentrations of BCH (5, 10, and 20 mM) for 24 h, followed by the MTT assay to identify the maximum non-toxic concentration of BCH. Then, the cells were treated with THC-di-Phe at 12.5, 25, and 50 μM concentrations with or without 5 mM BCH for 24 h. The cell viability was measured by MTT assay.

C6 glioma cells [2] = tested on: C6 glioma cells; parameters: method as in PMID 18520037; settings: cited from earlier work
LAT1 = tested on: LAT1; parameters: method as in PMID 18520037; settings: BCH 3 mM, C6 glioma cells; cited from earlier work
C6 glioma cells [3] = assay: Annexin V/PI double staining by flow cytometry; type: cell-based; settings: 20 μM, 24 h, mean ± S.D., n = 3
Method: Annexin V/PI staining by flow cytometry was performed to indicate the stage of cell fate, including necrosis, early and late apoptosis, and viable cells. Briefly, the cells were treated with the THC and THC-di-Phe at 20 µM. After 24 h, the cells were harvested and further analyzed by flow cytometry. Annexin V/PI staining by flow cytometry was performed according to the manufacturer’s instructions (BioLegend, San Diego, CA, USA).

C6 cells = assay: Cell proliferation assay (MTT); type: cell-based; settings: 10 µM, 24 h and 48 h post-treatment
Method: The effects of THC-di-Phe on cell cancer proliferation were assessed using a cell proliferation assay. Briefly, C6 cells were seeded in a 96-well plate at a concentration of 5000 cells/well and then incubated overnight. Cells were then incubated with 10 µM THC and THC-di-Phe for 24 and 48 h. The morphology of the cells was observed under a light microscope. Then, the cells were incubated with MTT solution (0.5 mg/mL), and the formed formazan crystals were dissolved in DMSO. The absorbance was measured using a microplate reader (CLARIOstar®, BMG Labtech, Ortenberg, Germany) at the wavelength of 570 nm.

C6 glioma cells [4] = assay: MTT cytotoxicity in C6 glioma cells; type: cell-based
Method: (§1) C6 glioma cells and BJ fibroblast cells (ATCC, Manassas, VA, USA) were used as models for brain cancer and normal cells, respectively. The cells were cultured in DMEM media (Sigma–Aldrich, St. Louis, MO, USA) supplemented with 10% fetal bovine serum (Merck Millipore, Burlington, MA, USA) and 1% penicillin-streptomycin (Caisson Labs, Smithfield, UT, USA). The cells were maintained in an incubator with 5% CO2 at 37 °C and 95% humidity.
(§2) Cell viability was assessed using the 3-(4,5-dimethylthiazol-2-yl)-2,5-diphenyltetrazolium bromide (MTT) assay (Sigma–Aldrich, St. Louis, MO, USA). Cells were seeded in 96-well plates at a density of 2 × 10^4 cells/well and incubated for 24 h. The cells were then treated with various concentrations of THC and equimolar concentrations of THC-amino acid conjugates (0, 31.25, 62.5, 125, 250, and 500 μM) for 24 and 48 h in cancer cells, and for 24 h in normal cells. After treatment, the media were removed and replaced with MTT solution (0.5 mg/mL), followed by incubation for 3 h. The resulting formazan crystals were dissolved in DMSO (Sigma–Aldrich, St. Louis, MO, USA). Absorbance was measured using a microplate reader at a wavelength of 570 nm (CLARIOstar®, BMG Labtech, Ortenberg, Germany).

BJ fibroblast cells = assay: MTT cytotoxicity in normal BJ fibroblast cells; type: cell-based; settings: 24 h treatment
Method: as §1, §2

C6 glioma cells [5] = assay: Cell scratch (wound closure, migration) assay; type: cell-based; settings: 10 µM, % of wound closure compared to 0 h; for wound closure at 24 h: control 71.4%; for wound closure at 48 h: control 100%
Method: Properties of cell migration were assayed using a cell scratch assay. Briefly, the cells were seeded in 24-well plates at a concentration of 100,000 cells/well, followed by treatment of the cells using 10 µM THC and 10 µM THC-di-Phe. The cell layers were then scrapped with a 200 µL pipette tip to form a wound. The ability of the cells to close the wound was observed under an inverted microscope (Nikon TS2, Tokyo, Japan) at 0, 24, and 48 h post-treatment. Wound closure was further analyzed using ImageJ software (version 1.53e, Wayne Rasband and contributors, National Institutes of Health, USA).

P70S6K/S6 pathway = assay: Western blot of P70S6K and S6 phosphorylation; type: cell-based; settings: 10 µM, C6 cells, 8, 16 and 24 h post-treatment
Method: C6 cells were seeded in a 6-well plate with a density of 1 × 10^6 cells for 24 h. The cells were treated with THC and THC-di-Phe for 8, 16, and 24 h. The cells were washed in ice-cold phosphate-buffered saline (PBS) and lysed with ice-cold lysis buffer containing protease and phosphatase inhibitors. The cells in the lysis buffer were centrifuged at 14,000 rpm at 4 °C for 10 min. The protein concentration in the supernatant was quantified using Pierce™ BCA protein assay. After the quantification, equal amounts of protein were resolved by SDS–PAGE and transferred into a nitrocellulose membrane. The membranes were then blocked with 5% dry milk and probed with primary antibody including p70S6K, p-p70S6K, S6, p-S6 (Cell Signaling Technology (Beverly, MA, USA), followed by adding the species-specific horseradish […] conjugated secondary antibody (Cell Signaling Technology (Beverly, MA, USA). The membrane was incubated with a chemiluminescent detection kit solution, followed by X-ray film imaging to visualize protein levels. The level of phosphorylation of each protein was normalized to its normal form.

C6 glioma cells [6] = assay: Hoechst 33342/PI double staining assay (apoptosis and necrosis); type: cell-based; settings: 20 and 40 µM and higher concentrations
Method: Apoptosis and necrosis were assessed using the Hoechst 33342/PI double staining assay (Sigma–Aldrich, St. Louis, MO, USA). After treatment, the cells were viewed using a fluorescence microscope (Olympus IX51 inverted microscope, Tokyo, Japan). Hoechst 33342 dye stains cells with blue color, either dead or alive. Apoptotic cells are indicated by condensed and fragmented chromatin. Propidium iodide (PI) stains cells in red, which can only stain damaged cells and is used as an indicator of cellular necrosis.

C6 glioma cells [7] = assay: MTT cytotoxicity in C6 glioma cells; type: cell-based; settings: tested at 5 to 40 µM, Supplementary Figure S29
[8] = 24 h treatment, read-out: IC50 at 24 h, C6 cells
[9] = 48 h treatment, read-out: IC50 at 48 h, C6 cells

Molecule	necrotic cell death (C6 glioma cells [3])	percentage of late apoptotic cells (C6 glioma cells [3])	proliferation ability of C6 cells compared to the control (C6 cells)	IC50 (C6 glioma cells [4]; [8])	IC50 (C6 glioma cells [4]; [9])	wound closure at 24 h (C6 glioma cells [5])	wound closure at 48 h (C6 glioma cells [5])	phosphorylation of P70S6K and S6 compared to control (P70S6K/S6 pathway)	IC50 (BJ fibroblast cells)	also measured
NC1(C(=O)O)CC2CCC1C2 (centres unmarked) [BCH, 2-Aminobicyclo-(2,2,1)-heptane-2-carboxylic acid]	–	–	–	–	–	–	–	–	–	maximum non-toxic concentration (C6 glioma cells [1]; C6 glioma cells, MTT): 5 mM; cytotoxicity at 3 mM (C6 glioma cells [2]; BCH 3 mM, 24 h incubation): no significant cytotoxicity; cytotoxicity at 10 mM (C6 glioma cells [2]; BCH 10 mM): significant toxicity; inhibition of LAT1 activity (LAT1): completely inhibit
COc1cc(CCC(=O)CC(=O)CCc2ccc(O)c(OC)c2)ccc1O [THC, Tetrahydrocurcumin]	2.73 ± 0.15%	2.33 ± 0.32%	significant reduction of cell proliferation by THC was only observed 48 h post-treatment	111 µM	52.9 µM	46.3%	81.4%	did not significantly modulate	–	IC50 (BJ fibroblast cells; Homo sapiens): 184 ± 31.8 µM
(Z)-2,2′-(((((3-Hydroxy-5-oxohept-3-ene-1,7-diyl)bis(2-methoxy-4,1 phenylene))bis(oxy))bis (carbonyl))bis(azanediyl))diacetic acid [THC-di-Gly]	–	–	–	> 500 µM	> 500 µM	–	–	–	> 500 µM	–
(Z)-2,2′-(((((3-Hydroxy-5-oxohept-3-ene-1,7-diyl)bis(2-methoxy-4,1-phenylene))bis(oxy))bis (carbonyl))bis(azanediyl))bis(3-methylpentanoic acid) [THC-di-Ile]	–	–	–	> 500 µM	> 500 µM	–	–	–	> 500 µM	–
(Z)-2,2′-(((((3-Hydroxy-5-oxohept-3-ene-1,7-diyl)bis(2-methoxy-4,1-phenylene))bis(oxy))bis (carbonyl))bis(azanediyl))bis(3-phenylpropanoic acid) [THC-di-Phe]	5.01 ± 0.64%	6.07 ± 1.13%	significantly inhibited	35.8 µM	26.8 µM	32.8%	65.2%	significantly inhibited	470 ± 20.4 µM	cell death on co-incubation with BCH vs THC-di-Phe alone, lower concentrations (C6 glioma cells [1]; THC-di-Phe 12.5 and 25 μM, 5 mM BCH): significantly increased cell death; cell death with or without BCH, higher concentrations (C6 glioma cells [1]; THC-di-Phe 50 and 100 μM, 5 mM BCH): comparable cellular death; induction of cellular apoptosis (Hoechst 33342/PI) (C6 glioma cells [6]): observed; concentrations toxic to C6 glioma cells (C6 glioma cells [7]): above 10 µM
(Z)-2,2′-(((((3-Hydroxy-5-oxohept-3-ene-1,7-diyl)bis(2-methoxy-4,1-phenylene))bis(oxy))bis (carbonyl))bis(azanediyl))bis(4-methylpentanoic acid) [THC-di-Leu]	–	–	–	350 ± 52.6 µM	350 ± 129 µM	–	–	–	> 500 µM	–
